Source: ChEMBL document CHEMBL1201862, “PubChem BioAssay data set” (2004)
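Where inhibition never reached the appropriate level, the endpoint shown equals the highest concentration tested. Otherwise, values were interpolated linearly from a five-concentration, 48-hour dose response in 96-well plates. Here, GI50 denotes the concentration required for 50% inhibition of growth.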 Calls of active or inactive are those of the source. Cut-off read from the data, not from the text of the source: active = GI50 up to about 1.1 µM and inactive = higher.

Columns and labels:
Test in all cases: DTP human tumour cell line panel, 48 h
786-0 = test system: 786-0
CCRF-CEM = test system: CCRF-CEM
CAKI-1 = test system: CAKI-1
EKVX = test system: EKVX
OVCAR-8 = test system: OVCAR-8
OVCAR-5 = test system: OVCAR-5
HL-60 = test system: HL-60
COLO 205 = test system: COLO 205
SNB-19 = test system: SNB-19
OVCAR-4 = test system: OVCAR-4
RXF 393 = test system: RXF 393
HOP-18 = test system: HOP-18
HCC 2998 = test system: HCC 2998
MDA-MB-231 = test system: MDA-MB-231
T47D = test system: T47D
MDA-MB-435 = test system: MDA-MB-435
Hs-578T = test system: Hs-578T
MDA-N = test system: MDA-N
MCF7 = test system: MCF7
PC-3 = test system: PC-3

SMILES	GI50 (786-0)	GI50 (CCRF-CEM)	GI50 (CAKI-1)	GI50 (EKVX)	GI50 (OVCAR-8)	GI50 (OVCAR-5)	GI50 (HL-60)	GI50 (COLO 205)	GI50 (SNB-19)	GI50 (OVCAR-4)	GI50 (RXF 393)	GI50 (HOP-18)	GI50 (HCC 2998)	GI50 (MDA-MB-231)	GI50 (T47D)	GI50 (MDA-MB-435)	GI50 (Hs-578T)	GI50 (MDA-N)	GI50 (MCF7)	GI50 (PC-3)
FC(F)(F)c1nc(-c2ccccc2Cl)[nH]c1C(F)(F)F	1.08 µM (active)	0.504 µM (active)	0.679 µM (active)	0.56 µM (active)	1.11 µM (active)	0.746 µM (active)	0.406 µM (active)	0.542 µM (active)	0.571 µM (active)	0.664 µM (active)	0.798 µM (active)	0.364 µM (active)	–	–	–	–	–	–	–	–
O=C1c2ccccc2C(=O)C1C(c1ccc([N+](=O)[O-])cc1)C1C(=O)c2ccccc2C1=O	> 100 µM (inactive)	32.4 µM (inactive)	28.8 µM (inactive)	> 100 µM (inactive)	25.5 µM (inactive)	> 100 µM (inactive)	58.3 µM (inactive)	> 100 µM (inactive)	> 100 µM (inactive)	> 100 µM (inactive)	14.3 µM (inactive)	> 100 µM (inactive)	> 100 µM (inactive)	–	–	–	–	–	–	–
O=c1nc(NC(c2ccccc2)(c2ccccc2)c2ccccc2)ccn1CCNCCn1ccc(NC(c2ccccc2)(c2ccccc2)c2ccccc2)nc1=O	14.1 µM (inactive)	5.96 µM (inactive)	14.8 µM (inactive)	18.7 µM (inactive)	10.7 µM (inactive)	31 µM (inactive)	2.41 µM (inactive)	10.7 µM (inactive)	9.27 µM (inactive)	14.2 µM (inactive)	11.8 µM (inactive)	16.3 µM (inactive)	3.96 µM (inactive)	–	–	–	–	–	–	–
C1=C(c2ccccc2)CN(c2ccccc2)OC1	> 100 µM (inactive)	> 100 µM (inactive)	56.5 µM (inactive)	86.9 µM (inactive)	–	26.8 µM (inactive)	54.8 µM (inactive)	> 100 µM (inactive)	> 100 µM (inactive)	> 10 µM (inactive)	33.5 µM (inactive)	2.71 µM (inactive)	> 100 µM (inactive)	–	–	–	–	–	–	–
CCOC(=O)CC[C@H](NC(=O)c1nc[nH]c1[N+](=O)[O-])C(=O)OCC	> 100 µM (inactive)	> 100 µM (inactive)	–	> 100 µM (inactive)	> 100 µM (inactive)	–	> 100 µM (inactive)	> 100 µM (inactive)	> 100 µM (inactive)	> 100 µM (inactive)	> 100 µM (inactive)	> 100 µM (inactive)	> 100 µM (inactive)	–	–	–	–	–	–	–
O=C(CCc1nnc(S)[nH]1)Nc1ccccc1Cl	> 100 µM (inactive)	> 100 µM (inactive)	> 100 µM (inactive)	> 100 µM (inactive)	> 100 µM (inactive)	> 100 µM (inactive)	> 100 µM (inactive)	> 100 µM (inactive)	> 100 µM (inactive)	> 100 µM (inactive)	> 100 µM (inactive)	> 100 µM (inactive)	> 100 µM (inactive)	–	–	–	–	–	–	–
CCCCCCCCCCNC(=O)CCC(NC(=O)c1ccc(N(C)Cc2cnc3nc(N)nc(N)c3n2)cc1)C(=O)NCCCCCCCCCC (stereo unspecified)	3.05 µM (inactive)	2.53 µM (inactive)	> 100 µM (inactive)	12.3 µM (inactive)	8.45 µM (inactive)	23.8 µM (inactive)	3.4 µM (inactive)	7.01 µM (inactive)	9.46 µM (inactive)	8.99 µM (inactive)	5.53 µM (inactive)	–	5.75 µM (inactive)	3.57 µM (inactive)	11.6 µM (inactive)	4.2 µM (inactive)	3.09 µM (inactive)	4.47 µM (inactive)	4.06 µM (inactive)	5.62 µM (inactive)
O=c1[nH]cc(COCCCO)c(=O)[nH]1	> 100 µM (inactive)	> 100 µM (inactive)	> 100 µM (inactive)	> 100 µM (inactive)	> 100 µM (inactive)	> 100 µM (inactive)	> 100 µM (inactive)	> 100 µM (inactive)	> 100 µM (inactive)	> 100 µM (inactive)	> 100 µM (inactive)	> 100 µM (inactive)	–	–	–	–	–	–	–	–
CCOC(=O)/C(Br)=C1\OC(=O)c2ccccc2-c2ccccc21	52.8 µM (inactive)	23.3 µM (inactive)	54.3 µM (inactive)	> 100 µM (inactive)	49.8 µM (inactive)	> 100 µM (inactive)	13.3 µM (inactive)	20.8 µM (inactive)	–	–	–	91.8 µM (inactive)	49.2 µM (inactive)	–	–	–	–	–	–	–
COc1ccccc1/C=C1\CCC(CN2CCOCC2)C1=O (stereo unspecified)	3.02 µM (inactive)	2.56 µM (inactive)	17.3 µM (inactive)	11.2 µM (inactive)	5.43 µM (inactive)	18.4 µM (inactive)	2.12 µM (inactive)	4.47 µM (inactive)	9.55 µM (inactive)	16.8 µM (inactive)	16.8 µM (inactive)	17.9 µM (inactive)	14.9 µM (inactive)	3.68 µM (inactive)	1.84 µM (inactive)	7.13 µM (inactive)	10.8 µM (inactive)	13.8 µM (inactive)	5.14 µM (inactive)	15.2 µM (inactive)
c1ccc2c3c([nH]c2c1)C1(CCCCC1)c1c([nH]c2ccccc12)C31CCCCC1	15.1 µM (inactive)	79.8 µM (inactive)	38.6 µM (inactive)	26.2 µM (inactive)	17.8 µM (inactive)	> 100 µM (inactive)	> 100 µM (inactive)	37.9 µM (inactive)	54.5 µM (inactive)	10.6 µM (inactive)	25.4 µM (inactive)	20.6 µM (inactive)	32.3 µM (inactive)	–	–	–	–	–	–	–
O=[N+]([O-])c1ccc(N2C[N+](c3ccccc3)=NC(c3ccccc3)=N2)cc1	59.7 µM (inactive)	45.1 µM (inactive)	63 µM (inactive)	–	43.9 µM (inactive)	73.1 µM (inactive)	38.2 µM (inactive)	50.5 µM (inactive)	38.6 µM (inactive)	44.5 µM (inactive)	54.5 µM (inactive)	21.1 µM (inactive)	–	–	–	–	–	–	–	–
O=C(O)CCCCCOc1cccnc1/C=N/NC1=NCCN1	> 100 µM (inactive)	> 100 µM (inactive)	> 100 µM (inactive)	> 100 µM (inactive)	> 100 µM (inactive)	> 100 µM (inactive)	> 100 µM (inactive)	> 100 µM (inactive)	> 100 µM (inactive)	> 100 µM (inactive)	> 100 µM (inactive)	> 100 µM (inactive)	> 100 µM (inactive)	–	–	–	–	–	–	–
O=C(O)CSc1nnc(-c2ccc(O)cc2)[nH]1	> 100 µM (inactive)	> 100 µM (inactive)	> 100 µM (inactive)	> 100 µM (inactive)	> 100 µM (inactive)	> 100 µM (inactive)	> 100 µM (inactive)	> 100 µM (inactive)	> 100 µM (inactive)	> 100 µM (inactive)	–	> 100 µM (inactive)	> 100 µM (inactive)	–	–	–	–	–	–	–
COc1ccc(OCC(=O)O)c2c1CCC(C(C)C)C2=O (stereo unspecified)	> 100 µM (inactive)	> 100 µM (inactive)	> 100 µM (inactive)	> 100 µM (inactive)	> 100 µM (inactive)	> 100 µM (inactive)	> 100 µM (inactive)	> 100 µM (inactive)	> 100 µM (inactive)	> 100 µM (inactive)	–	> 100 µM (inactive)	> 100 µM (inactive)	–	–	–	–	–	–	–
CCOc1ccc(/N=N/S(=O)(=O)O)cc1	> 100 µM (inactive)	> 100 µM (inactive)	> 100 µM (inactive)	> 100 µM (inactive)	> 100 µM (inactive)	> 100 µM (inactive)	> 100 µM (inactive)	> 100 µM (inactive)	> 100 µM (inactive)	> 100 µM (inactive)	> 100 µM (inactive)	–	> 100 µM (inactive)	> 100 µM (inactive)	> 100 µM (inactive)	> 100 µM (inactive)	> 100 µM (inactive)	> 100 µM (inactive)	> 100 µM (inactive)	> 100 µM (inactive)
CC(=O)OCC1OC(OC2CC3C(C)(C)C(OC(C)=O)CC[C@]3(C)C3CCC45CC4(CC[C@H]5C(C)CC(O)[C@@H](O)C(C)(C)O)[C@]23C)C(O)C(O)C1O (stereo partly specified)	7.82 µM (inactive)	6.46 µM (inactive)	7.21 µM (inactive)	7 µM (inactive)	7.45 µM (inactive)	7.66 µM (inactive)	3.5 µM (inactive)	7.8 µM (inactive)	7.08 µM (inactive)	6.67 µM (inactive)	7.57 µM (inactive)	8.61 µM (inactive)	6.84 µM (inactive)	–	–	–	–	–	–	–
Cc1nc2ccccc2c(=O)[nH]1	> 100 µM (inactive)	> 100 µM (inactive)	–	> 100 µM (inactive)	> 100 µM (inactive)	> 100 µM (inactive)	> 100 µM (inactive)	> 100 µM (inactive)	> 100 µM (inactive)	> 100 µM (inactive)	> 100 µM (inactive)	> 100 µM (inactive)	> 100 µM (inactive)	–	–	–	–	–	–	–
Cc1c(C(=O)/C=C/c2ccc(Cl)cc2)[n+]([O-])c2ccccc2[n+]1[O-]	12.6 µM (inactive)	5.57 µM (inactive)	9.2 µM (inactive)	15.6 µM (inactive)	11.2 µM (inactive)	15 µM (inactive)	5.92 µM (inactive)	14.1 µM (inactive)	14.4 µM (inactive)	10.5 µM (inactive)	4.18 µM (inactive)	20.6 µM (inactive)	11.8 µM (inactive)	–	–	–	–	–	–	–
CC(=O)OC(/C=C1/C=CC(=O)O1)COC(=O)c1ccccc1 (stereo unspecified) [ACETYLMELODORINOL]	> 31.2 µM (inactive)	> 31.2 µM (inactive)	> 31.2 µM (inactive)	> 31.2 µM (inactive)	> 31.2 µM (inactive)	> 31.2 µM (inactive)	> 31.2 µM (inactive)	> 31.2 µM (inactive)	> 31.2 µM (inactive)	> 31.2 µM (inactive)	> 31.2 µM (inactive)	> 31.2 µM (inactive)	> 31.2 µM (inactive)	–	–	–	–	–	–	–
